Measurements reported in US10729693B2, “Compositions and methods for the treatment of endometriosis” (PONCE MEDICAL SCHOOL FOUNDATION, INC., priority 2018, dated 2020).

Columns and labels:
endometriosis vesicles = assay: Autotransplantation rat model of endometriosis: vesicle development and morphology; format: in vivo; settings: at 60 days
Description: Experiment 2 consisted of 51 female rats that underwent endometriosis induction (n=40) or sham surgery (n=11). From the 40 rats that underwent endometriosis induction, 20 rats received the CRHR1 antagonist antalarmin intraperitoneally (i.p.) and 20 rats received vehicle control i.p. (10% Tween 80) from days 1-7 after surgery and endometriosis was allowed to progress until day 60 after surgery. The remaining 11 rats that underwent sham surgery were left untreated until day 60 after surgery. The sham group was used as a non-endometriosis baseline comparison. Only rats with regular estrous cycles were used in the experiments as assessed by vaginal smear lavage during the 7 days prior to surgery and on the day of sacrifice. […] Therefore, the final group numbers for endometriosis quantification and behavior were: endometriosis-antalarmin=20, endometriosis-vehicle=20, sham=10. Cyclicity was not assessed during the drug administration and was only collected before treatment and the day of sacrifice. This was decided to avoid any additional stressors not related to the drug administration per se that may affect results. The estrous cycle distribution for experiments 1 and 2 can be accessed in FIG. 14.
First, endometriosis in female rats was induced by suturing uterine horn tissue next to the intestinal mesentery and allowed to progress for 7 days. After 7 days, it was determined that there was a significant increase in CRHR1 within endometriotic vesicles as compared to a normal uterus. Endometriosis was induced in a second group of rats, and further the second group of rats received consecutive doses of antalarmin of 20 milligrams per kilogram intraperitoneal (20 mg/kg, i.p.) during the first 7 days after surgery. A separate group of sham surgery rats served as controls.
Briefly, rats were anesthetized with isoflurane and four pieces of the right uterine horn were auto transplanted to 4 different blood vessels in the intestinal mesentery. The control group was sham operated animals for which the right uterine horn was massaged for 2 minutes and sutures were placed in the intestinal mesenteric area with no uterine implants. For group 1, sham or endometriosis operated rats were allowed to progress for 7 days after surgery before sacrificed. For group 2, endometriosis was allowed to progress for 60 days before sacrificing.
It was verified that the animals were deeply anesthetized. Rats were weighed, and a cytological smear taken to verify stage of the estrous cycle. The peritoneal and thoracic cavities were opened, and a blood sample was collected directly from the heart. Following this, peritoneal fluid was collected using a sterile plastic pipette. Examination was directed to the presence of endometriosis vesicles. The implants that developed into vesicles were excised from the mesentery, weighed and measured using a digital caliper. Classification of vesicles was carried out and assigned the following grades: grade 1=disappeared; grade 2=0.01-1.99 mm; grade 3=2-4.49 mm; grade 4=4.5-5.99 mm; grade 5=6.0 mm or larger. In sham animals, empty suture sites were counted and collected. In addition to the endometriosis vesicles, the adrenal glands were collected, all surrounding fatty tissue was removed, and the cleared adrenal glands were weighed. Additionally, tissues from colon and the left uterine horn were collected. All tissues were flash frozen and stored at −80° until further processing.

[1] = system: mineralocorticoid receptor 2 mRNA; assay: mRNA of mineralocorticoid receptor 2 within the adrenal glands; format: in vivo, rat; settings: compared to sham group
Experimental: FIG. 18: mRNA of mineralocorticoid receptor 2. Within the adrenal glands of the same animals from the sham or endometriosis groups that received vehicle or antalarmin, the mRNA of the mineralocorticoid receptor 2 was measured. This receptor is in charge of binding adrenocorticotropic hormone (ACTH), which was elevated in animals that received antalarmin. The mineralocorticoid receptor mRNA expression is decreased in response to antalarmin as compared to the sham group. This could be due to a down regulation of the receptor in response to increased ACTH circulating levels. ** p<0.01.

implantation sites = settings: rodents; Fas-ligand immune tolerance dependent mechanism; cited from earlier work
[2] = system: CRHR1, CRHR2, CRH and GR mRNA in hippocampus; assay: qRT-PCR of mRNA levels in hippocampus; format: in vivo, rat; settings: day 60
Experimental: Endometriosis vesicles and normal uterine tissue from endometriosis or sham rats, were lysed in an RLT buffer (QIAGEN, Germantown, Md.) using the BULLET BLENDER Tissue Homogenizer (NEXT ADVANCE, Averill Park, N.Y.). The total RNA from the lysates were extracted according to RNEASY Mini Kit manufacturer's protocol (QIAGEN, Germantown, Md.). RNA concentration and purity were measured on a NanoDrop™ 2000 UV spectrophotometer (Thermo Scientific™, Wilmington, USA). Concentration and quality of RNA samples were acquired based on the ratio of absorbance at 260/280 nm in the spectrophotometer. To carry out the synthesis of cDNA from RNA samples a total reaction volume of 20 μl including 0.1 μg of total RNA concentration and synthesis reagents was used. A iScript™ cDNA Synthesis Kit was used according to manufacturer's protocol (BIO-RAD, Hercules, Calif.). Reactions were carried out in T-100™ thermal cycler (BIO-RAD, Hercules, Calif.). RT-PCR running method was as follows: 25° C. for 5 min, 42° C. for 30 min, 85° C. for 5 min. Samples were stored at −80° C. for later experimentation or qRT-PCR.
Real time quantitative PCR (qPCR) was used to evaluate changes in mRNA expression. For this, 25 μl of a total volume of reaction assay was used with 1:10 dilution of cDNA with iQ™ SYBR Green Supermix (BIO-RAD Hercules, Calif.) in a 96 well plate according to the manufacturer protocol and amplified in a Quant Studio™ 12 K Flex Real time PCR System (Applied Biosystems™, Carlsbad, Calif.). Commercial primers for CRH, UCN1 CRHR1, CRHR2 and glucocorticoid receptor (GR) were purchased from QIAGEN (Germantown, Md.). Real time PCR cycles protocol was as follows: 95° C. for 10 min. for enzyme activation followed by 40 cycles of denaturing at 95° C. for 15 sec. and annealing at 60° C. for 1 min. All changes in gene expression were normalized against GAPDH of each sample. CT values and changes per gene expression level were automatically analyzed by the Quantstudio™ 12 K Flex Software (Applied Biosystems™, Carlsbad, Calif.). All samples were run in duplicate. For comparison purposes, mRNA from sham rats were always run within the same plate as experimental samples from vehicle treated and antalarmin treated groups.
Endometriosis and antalarmin have long-lasting effects in the brain. Previous work reported a decrease in CRH within hippocampus of animals with endometriosis compared to sham rats that were subject to stress. Given that antalarmin readily crosses the blood brain barrier, the effects of treatment in the hippocampus was quantified. […] It appears that the increase in CRH1 was balanced out by an equally similar increase in CRH2. This was not observed in the vehicle treated groups (FIGS. 10A and 10B). mRNA was collected and quantified as described in Example 1. […]

[3] = 20 mg/kg i.p. days 1-7 after surgery
[4] = normalized to sham, large variability

In the case of `CCCCN(CC)c1nc(C)nc2c1c(C)c(C)n2-c1c(C)cc(C)cc1C` [antalarmin], the “average vesicle area per rat, difference to vehicle” value (endometriosis vesicles; [3]) is reported as 55%, the “average vesicle volume per rat, difference to vehicle” value (endometriosis vesicles; [3]) is reported as 68% and the “total weight of endometriosis vesicles (sum per rat), less than vehicle control (size decrease)” value (endometriosis vesicles; [3]) is reported as 67%. The “decrease in the number of developed endometriosis vesicles” value (endometriosis vesicles; 20 mg/kg i.p. days 1-7 after surgery, vs vehicle) was 30%, the “vesicle classification by grade (1-5, length scale)” value (endometriosis vesicles; vs vehicle treated control) was “a larger percentage of endometriosis vesicles that disappeared, as well as a reduced percentage of vesicles of grade 3 and 5” and the “mineralocorticoid receptor 2 mRNA expression in adrenal glands” value [1] was “decreased”. The “reduction of the number of implantation sites” value (implantation sites) was 70%, the “hippocampal CRH mRNA” value ([2]; compared to sham) was “increase in hippocampal CRH mRNA of similar magnitude” and the “hippocampal GR mRNA” value ([2]; compared to sham) was “fourfold increase”. For the same compound, the “hippocampal CRHR1 mRNA increase” value [2, 4] was 15 fold and the “hippocampal CRHR2 mRNA increase” value [2, 4] was 15 fold.
